Measured values published in ChEMBL document CHEMBL4321785, “Challenges and Opportunities for Therapeutics Targeting the Voltage-Gated Sodium Channel Isoform NaV1.7” (J Med Chem, 2019).

Experiments:
[1] = target: Sodium channel protein type 3 subunit alpha (Homo sapiens, UniProt Q9NY46); assay: Binding affinity to human recombinant Nav1.3 by radioligand binding assay
[2] = Ratio of plasma concentration in mouse model of CFA-induced pain at 30 mg/kg, po during Hargreaves test to IC50 for inhibition of mouse Nav1.7 expressed in HEK293 cells by electrophysiology assay; assay type: organism-based; conditions: in vivo
[3] = target: Sodium channel protein type 10 subunit alpha (Mus musculus, UniProt Q6QIY3); assay: Binding affinity to mouse Nav1.8 […] by radioligand binding assay
[4] = Unbound fraction in mouse plasma; assay type: ADME, cell-free
[5] = Plasma concentration in mouse model of CFA-induced pain at 30 mg/kg, po during Hargreaves test; assay type: ADME, organism-based; conditions: in vivo
[6] = target: T1, Sodium channel protein type 8 subunit alpha (Homo sapiens, UniProt Q9UQD0); assay: Binding affinity to human recombinant Nav1.6 by radioligand binding assay
T1 sequence (Q9UQD0 whole entry): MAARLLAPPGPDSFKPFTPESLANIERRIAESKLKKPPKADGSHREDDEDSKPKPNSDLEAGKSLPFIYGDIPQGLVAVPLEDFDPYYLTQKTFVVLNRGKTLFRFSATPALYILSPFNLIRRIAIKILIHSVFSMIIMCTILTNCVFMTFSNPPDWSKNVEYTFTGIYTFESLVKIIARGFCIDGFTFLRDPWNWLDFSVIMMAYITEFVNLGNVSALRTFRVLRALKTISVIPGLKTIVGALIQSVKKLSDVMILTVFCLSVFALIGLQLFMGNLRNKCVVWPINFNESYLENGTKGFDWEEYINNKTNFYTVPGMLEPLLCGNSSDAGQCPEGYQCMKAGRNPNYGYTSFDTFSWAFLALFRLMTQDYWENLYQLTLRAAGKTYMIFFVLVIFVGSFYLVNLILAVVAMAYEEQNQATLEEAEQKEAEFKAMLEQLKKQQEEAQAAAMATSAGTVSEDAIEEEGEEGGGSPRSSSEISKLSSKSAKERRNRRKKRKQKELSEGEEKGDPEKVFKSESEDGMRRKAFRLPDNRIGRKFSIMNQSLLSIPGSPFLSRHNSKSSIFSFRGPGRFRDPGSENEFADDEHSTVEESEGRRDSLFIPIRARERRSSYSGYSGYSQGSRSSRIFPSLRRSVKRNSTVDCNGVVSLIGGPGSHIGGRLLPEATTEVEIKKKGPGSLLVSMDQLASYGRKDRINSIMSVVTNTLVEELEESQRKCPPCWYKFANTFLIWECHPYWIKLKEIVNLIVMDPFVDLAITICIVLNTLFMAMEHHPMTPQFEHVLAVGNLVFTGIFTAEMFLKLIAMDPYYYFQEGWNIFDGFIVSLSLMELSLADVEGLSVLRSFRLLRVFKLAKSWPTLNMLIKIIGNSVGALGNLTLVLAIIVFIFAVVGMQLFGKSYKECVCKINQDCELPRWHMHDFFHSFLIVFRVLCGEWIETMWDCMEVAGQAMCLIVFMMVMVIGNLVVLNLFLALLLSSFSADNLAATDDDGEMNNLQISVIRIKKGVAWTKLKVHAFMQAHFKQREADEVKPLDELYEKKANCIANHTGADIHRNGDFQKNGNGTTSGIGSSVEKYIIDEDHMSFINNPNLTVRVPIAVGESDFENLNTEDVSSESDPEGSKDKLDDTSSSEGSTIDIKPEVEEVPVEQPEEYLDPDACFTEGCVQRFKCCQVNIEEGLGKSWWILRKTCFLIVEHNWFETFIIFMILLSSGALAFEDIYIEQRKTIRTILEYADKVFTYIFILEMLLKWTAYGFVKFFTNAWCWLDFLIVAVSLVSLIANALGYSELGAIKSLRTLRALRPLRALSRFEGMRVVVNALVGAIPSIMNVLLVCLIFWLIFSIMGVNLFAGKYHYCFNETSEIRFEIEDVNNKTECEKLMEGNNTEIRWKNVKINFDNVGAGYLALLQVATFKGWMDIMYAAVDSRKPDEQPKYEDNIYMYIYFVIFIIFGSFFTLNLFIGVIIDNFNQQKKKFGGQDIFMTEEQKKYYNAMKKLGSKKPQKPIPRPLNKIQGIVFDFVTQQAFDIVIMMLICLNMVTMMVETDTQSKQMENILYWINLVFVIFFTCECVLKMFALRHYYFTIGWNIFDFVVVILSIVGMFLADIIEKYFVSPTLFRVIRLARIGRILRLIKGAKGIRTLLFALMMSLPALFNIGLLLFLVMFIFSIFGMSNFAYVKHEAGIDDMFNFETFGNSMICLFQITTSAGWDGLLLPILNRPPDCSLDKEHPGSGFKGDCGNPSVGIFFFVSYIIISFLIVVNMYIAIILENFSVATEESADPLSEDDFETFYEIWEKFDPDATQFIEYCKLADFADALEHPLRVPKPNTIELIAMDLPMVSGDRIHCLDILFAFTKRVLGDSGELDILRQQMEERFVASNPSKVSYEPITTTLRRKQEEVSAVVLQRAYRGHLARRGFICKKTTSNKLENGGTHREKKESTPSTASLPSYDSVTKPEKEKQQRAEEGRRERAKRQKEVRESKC

[7] = target: T2, Sodium channel protein type 5 subunit alpha (Homo sapiens, UniProt Q14524); assay: Binding affinity to human recombinant Nav1.5 by radioligand binding assay
Homo sapiens [8] = organism: Homo sapiens; assay: Selectivity ratio of Kd for binding affinity to human recombinant Nav1.5 by radioligand binding assay to Kd for binding affinity to human recombinant Nav1.7 by radioligand binding assay
[9] = Plasma concentration in mouse model of pain at 30 mg/kg, po during tail immersion test; assay type: ADME, organism-based; conditions: in vivo
Homo sapiens [10] = organism: Homo sapiens; assay: Selectivity ratio of Kd for binding affinity to human recombinant Nav1.4 by radioligand binding assay to Kd for binding affinity to human recombinant Nav1.7 by radioligand binding assay
[11] = Ratio of unbound plasma concentration in mouse model of STZ-induced pain measured to Kd for binding affinity to mouse Nav1.7 by radioligand binding assay; assay type: ADME; conditions: in vivo
[12] = target: Sodium channel protein type 9 subunit alpha (Mus musculus, UniProt Q62205); assay: Binding affinity to mouse Nav1.7 by radioligand binding assay
[13] = Ratio of unbound plasma concentration in mouse model of CFA-induced cold allodynia to Kd for binding affinity to mouse Nav1.7 by radioligand binding assay; assay type: ADME; conditions: in vivo
[14] = Plasma concentration in mouse model of pain at 30 mg/kg, po during hot plate test; assay type: ADME, organism-based; conditions: in vivo
Homo sapiens [15] = organism: Homo sapiens; assay: Selectivity ratio of Kd for binding affinity to human recombinant Nav1.6 by radioligand binding assay to Kd for binding affinity to human recombinant Nav1.7 by radioligand binding assay
Homo sapiens [16] = organism: Homo sapiens; assay: Selectivity ratio of Kd for binding affinity to human recombinant Nav1.3 by radioligand binding assay to Kd for binding affinity to human recombinant Nav1.7 by radioligand binding assay
[17] = Ratio of plasma concentration in mouse model of pain at 30 mg/kg, po during hot plate test to IC50 for inhibition of mouse Nav1.7 expressed in HEK293 cells by electrophysiology assay; assay type: organism-based; conditions: in vivo
[18] = Ratio of unbound plasma concentration in mouse model of formalin-induced pain to Kd for binding affinity to mouse Nav1.7 by radioligand binding assay; assay type: ADME; conditions: in vivo
[19] = target: T3, Sodium channel protein type 1 subunit alpha (Homo sapiens, UniProt P35498); assay: Binding affinity to human recombinant Nav1.1 by radioligand binding assay
[20] = target: T4, Sodium channel protein type 4 subunit alpha (Homo sapiens, UniProt P35499); assay: Binding affinity to human recombinant Nav1.4 by radioligand binding assay
Homo sapiens [21] = organism: Homo sapiens; assay: Selectivity ratio of Kd for binding affinity to human recombinant Nav1.2 by radioligand binding assay to Kd for binding affinity to human recombinant Nav1.7 by radioligand binding assay
Homo sapiens [22] = organism: Homo sapiens; assay: Selectivity ratio of Kd for binding affinity to human recombinant Nav1.1 by radioligand binding assay to Kd for binding affinity to human recombinant Nav1.7 by radioligand binding assay
[23] = Ratio of unbound plasma concentration in mouse model of inherited erythromelalgia to Kd for binding affinity to recombinant human Nav1.7 by radioligand binding assay; assay type: ADME; conditions: in vivo
[24] = Ratio of plasma concentration in mouse model of pain at 30 mg/kg, po during tail immersion test to IC50 for inhibition of mouse Nav1.7 expressed in HEK293 cells by electrophysiology assay; assay type: organism-based; conditions: in vivo
[25] = target: T5, Sodium channel protein type 2 subunit alpha (Homo sapiens, UniProt Q99250); assay: Binding affinity to human recombinant Nav1.2 by radioligand binding assay
T5 sequence (Q99250 whole entry): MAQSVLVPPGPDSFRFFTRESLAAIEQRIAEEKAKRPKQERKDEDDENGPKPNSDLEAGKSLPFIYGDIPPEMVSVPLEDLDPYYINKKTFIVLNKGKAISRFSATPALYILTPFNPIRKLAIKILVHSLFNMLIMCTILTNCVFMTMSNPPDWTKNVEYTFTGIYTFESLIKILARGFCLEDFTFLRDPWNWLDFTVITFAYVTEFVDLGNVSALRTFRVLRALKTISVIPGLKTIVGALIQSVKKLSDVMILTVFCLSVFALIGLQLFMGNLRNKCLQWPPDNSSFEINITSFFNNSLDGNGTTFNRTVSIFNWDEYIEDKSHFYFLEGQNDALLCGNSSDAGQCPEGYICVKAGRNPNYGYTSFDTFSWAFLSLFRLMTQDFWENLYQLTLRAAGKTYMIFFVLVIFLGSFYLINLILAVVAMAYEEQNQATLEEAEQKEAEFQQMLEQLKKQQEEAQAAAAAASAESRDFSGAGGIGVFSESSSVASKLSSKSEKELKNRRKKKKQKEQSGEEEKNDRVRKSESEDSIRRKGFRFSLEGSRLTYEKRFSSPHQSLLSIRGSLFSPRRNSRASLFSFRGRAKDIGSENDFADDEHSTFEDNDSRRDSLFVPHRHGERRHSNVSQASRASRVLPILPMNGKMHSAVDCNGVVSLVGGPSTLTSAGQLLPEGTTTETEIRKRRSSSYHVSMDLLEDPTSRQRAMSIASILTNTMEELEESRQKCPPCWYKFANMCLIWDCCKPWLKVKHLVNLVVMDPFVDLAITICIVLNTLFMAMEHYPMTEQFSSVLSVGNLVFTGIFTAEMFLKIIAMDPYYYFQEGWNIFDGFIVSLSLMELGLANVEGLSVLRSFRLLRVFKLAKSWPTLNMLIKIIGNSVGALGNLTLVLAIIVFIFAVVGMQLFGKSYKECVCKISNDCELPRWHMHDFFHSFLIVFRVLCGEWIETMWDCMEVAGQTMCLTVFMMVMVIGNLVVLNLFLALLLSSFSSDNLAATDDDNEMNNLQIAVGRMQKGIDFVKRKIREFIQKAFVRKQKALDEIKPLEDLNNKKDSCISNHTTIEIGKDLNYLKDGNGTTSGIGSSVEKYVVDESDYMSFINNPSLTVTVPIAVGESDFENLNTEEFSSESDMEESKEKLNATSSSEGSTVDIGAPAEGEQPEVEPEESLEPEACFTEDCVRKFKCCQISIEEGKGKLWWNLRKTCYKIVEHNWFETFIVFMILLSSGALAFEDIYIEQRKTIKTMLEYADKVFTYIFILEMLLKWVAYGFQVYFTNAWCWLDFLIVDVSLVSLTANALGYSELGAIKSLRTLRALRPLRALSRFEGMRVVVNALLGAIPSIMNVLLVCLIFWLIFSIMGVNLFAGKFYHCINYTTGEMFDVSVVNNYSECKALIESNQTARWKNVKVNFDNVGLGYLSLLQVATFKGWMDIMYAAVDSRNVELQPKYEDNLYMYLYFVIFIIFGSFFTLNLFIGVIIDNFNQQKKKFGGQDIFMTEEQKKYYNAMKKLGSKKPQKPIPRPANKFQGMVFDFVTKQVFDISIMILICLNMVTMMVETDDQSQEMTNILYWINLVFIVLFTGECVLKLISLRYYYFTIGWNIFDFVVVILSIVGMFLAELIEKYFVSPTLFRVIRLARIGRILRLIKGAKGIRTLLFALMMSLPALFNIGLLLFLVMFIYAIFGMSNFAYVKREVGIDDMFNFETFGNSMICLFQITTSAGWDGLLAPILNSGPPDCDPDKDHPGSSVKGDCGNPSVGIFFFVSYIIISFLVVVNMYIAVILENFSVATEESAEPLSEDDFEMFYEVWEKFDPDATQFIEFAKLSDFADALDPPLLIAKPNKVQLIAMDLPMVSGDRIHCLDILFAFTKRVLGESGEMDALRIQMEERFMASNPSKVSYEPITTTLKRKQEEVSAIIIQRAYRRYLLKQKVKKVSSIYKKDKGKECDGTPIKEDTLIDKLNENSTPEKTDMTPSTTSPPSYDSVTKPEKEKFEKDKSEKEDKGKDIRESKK

Rattus norvegicus [26] = assay: Analgesic activity in it dosed rat model of pain by tail flick test; assay type: functional
Homo sapiens [27] = organism: Homo sapiens; assay: Selectivity index, ratio of IC50 for inhibition of human Nav1.6 expressed in HEK293 cells by electrophysiology assay to IC50 for inhibition of human Nav1.7 expressed in HEK293 cells by electrophysiology assay; assay type: cell-based
[28] = target: T5, Sodium channel protein type 2 subunit alpha; assay: Inhibition of human Nav1.2 expressed in HEK293 cells by electrophysiology assay; assay type: cell-based
Homo sapiens [29] = organism: Homo sapiens; assay: Selectivity index, ratio of IC50 for inhibition of human Nav1.2 expressed in HEK293 cells by electrophysiology assay to IC50 for inhibition of human Nav1.7 expressed in HEK293 cells by electrophysiology assay; assay type: cell-based
Rattus norvegicus [30] = assay: Analgesic activity in it dosed rat model of formalin-induced pain; assay type: functional
Homo sapiens [31] = organism: Homo sapiens; assay: Selectivity index, ratio of IC50 for inhibition of human Nav1.4 expressed in HEK293 cells by electrophysiology assay to IC50 for inhibition of human Nav1.7 expressed in HEK293 cells by electrophysiology assay; assay type: cell-based
[32] = target: T1, Sodium channel protein type 8 subunit alpha; assay: Inhibition of human Nav1.6 expressed in HEK293 cells by electrophysiology assay; assay type: cell-based
[33] = target: Sodium channel protein type 9 subunit alpha (Homo sapiens, UniProt Q15858); assay: Inhibition of human Nav1.7 expressed in HEK293 cells by electrophysiology assay; assay type: cell-based
Rattus norvegicus [34] = assay: Analgesic activity in po dosed rat model of pain by Hargreaves test; assay type: functional
[35] = target: T3, Sodium channel protein type 1 subunit alpha; assay: Inhibition of human Nav1.1 expressed in HEK293 cells by electrophysiology assay; assay type: cell-based
[36] = target: T4, Sodium channel protein type 4 subunit alpha; assay: Inhibition of human Nav1.4 expressed in HEK293 cells by electrophysiology assay; assay type: cell-based
Rattus norvegicus [37] = assay: Analgesic activity in it dosed rat model of pain by hot plate test; assay type: functional
Homo sapiens [38] = organism: Homo sapiens; assay: Selectivity index, ratio of IC50 for inhibition of human Nav1.5 expressed in HEK293 cells by electrophysiology assay to IC50 for inhibition of human Nav1.7 expressed in HEK293 cells by electrophysiology assay; assay type: cell-based
[39] = target: T2, Sodium channel protein type 5 subunit alpha; assay: Inhibition of human Nav1.5 expressed in HEK293 cells by electrophysiology assay; assay type: cell-based
Homo sapiens [40] = organism: Homo sapiens; assay: Selectivity index, ratio of IC50 for inhibition of human Nav1.1 expressed in HEK293 cells by electrophysiology assay to IC50 for inhibition of human Nav1.7 expressed in HEK293 cells by electrophysiology assay; assay type: cell-based

For `CS(=O)(=O)NC(=O)c1cc(C2CC2)c(OCC2CCN(Cc3cc(C(F)(F)F)ccc3Cl)CC2)cc1F`, which Kd [1] is on record?
The Kd was 180 nM.

And the Ratio [2]?
Its Ratio is 15.

What about the Kd [3] of the same compound?
The Kd was 13000 nM.

What about the fraction unbound [4] of the same compound?
The fraction unbound was 0.002.

What about the concentration [5] of the same compound?
Its concentration is 16.1 µM.

What about the Kd [6] of the same compound?
The Kd was 210 nM.

What about the Kd [7] of the same compound?
Its Kd is 370 nM.

What about the Ratio Ki (Homo sapiens [8]) of the same compound?
The Ratio Ki was 100.

What about the concentration [9] of the same compound?
The concentration was 10.5 µM.

And the Ratio Ki (Homo sapiens [10])?
The Ratio Ki was 8.

What about the Ratio [11] of the same compound?
Its Ratio is 12.

What about the Kd [12] of the same compound?
Its Kd is 2.1 nM.

And the Ratio [13]?
Its Ratio is 7.5.

What about the concentration [14] of the same compound?
The concentration was 10.5 µM.

What about the Ratio Ki (Homo sapiens [15]) of the same compound?
Its Ratio Ki is 60.

And the Ratio Ki (Homo sapiens [16])?
Its Ratio Ki is 51.

What about the Ratio [17] of the same compound?
The Ratio was 10.

And the Ratio [18]?
Its Ratio is 5.5.

What about the Kd [19] of the same compound?
The Kd was 140 nM.

And the Kd [20]?
The Kd was 28 nM.

And the Ratio Ki (Homo sapiens [21])?
The Ratio Ki was 18.

What about the Ratio Ki (Homo sapiens [22]) of the same compound?
The Ratio Ki was 40.

And the Ratio [23]?
Its Ratio is 0.6.

And the Ratio [24]?
The Ratio was 10.

And the Kd [25]?
The Kd was 64 nM.

For `CSCC[C@@H]1NC(=O)CNC(=O)[C@H](CCC(=O)O)NC(=O)[C@@H]2CSSC[C@H](NC(=O)[C@H](Cc3ccc(O)cc3)NC(=O)[C@H](Cc3ccc(O)cc3)NC(=O)[C@@H]3CCCN3C(=O)CN)C(=O)N[C@@H](CCC(N)=O)C(=O)N[C@@H](CCCCN)C(=O)N[C@@H](Cc3c[nH]c4ccccc34)C(=O)N[C@@H](CCSC)C(=O)N[C@@H](CCC(N)=O)C(=O)N[C@@H]([C@@H](C)O)C(=O)N[C@H]3CSSC[C@H](NC(=O)[C@H](C(C)C)NC1=O)C(=O)N[C@@H](CCCNC(=N)N)C(=O)N[C@@H](CC(C)C)C(=O)N[C@@H](Cc1c[nH]c4ccccc14)C(=O)N[C@H](C(=O)N[C@@H](CCCCN)C(=O)N[C@@H](CCCCN)C(=O)N[C@@H](CCCCN)C(=O)N[C@@H](CC(C)C)C(=O)N[C@@H](CC(C)C)C(=O)O)CSSC[C@H](NC(=O)[C@H](CCCCN)NC(=O)[C@H](CCCNC(=N)N)NC(=O)[C@H](CCC(=O)O)NC(=O)[C@H](CO)NC(=O)[C@H](CC(=O)O)NC3=O)C(=O)N2`, which ED (Rattus norvegicus [26]) is on record?
Its ED is 0.3 to 7.5 µg.

What about the Ratio IC50 (Homo sapiens [27]) of the same compound?
The Ratio IC50 was 100.

What about the IC50 [28] of the same compound?
The IC50 was 1600 nM.

What about the Ratio IC50 (Homo sapiens [29]) of the same compound?
The Ratio IC50 was 160.

And the ED (Rattus norvegicus [30])?
Its ED is 1 to 5 µg.

And the Ratio IC50 (Homo sapiens [31])?
The Ratio IC50 was 530.

And the IC50 [32]?
Its IC50 is 1000 nM.

What about the IC50 [33] of the same compound?
Its IC50 is 10 nM.

And the ED (Rattus norvegicus [34])?
The ED was 1.4 mg.

And the IC50 [35]?
The IC50 was 10000 nM.

What about the IC50 [36] of the same compound?
The IC50 was 5300 nM.

What about the ED (Rattus norvegicus [37]) of the same compound?
The ED was 0.3 to 7.5 µg.

And the Ratio IC50 (Homo sapiens [38])?
Its Ratio IC50 is over 1000.

What about the IC50 [39] of the same compound?
The IC50 was over 10000 nM.

And the Ratio IC50 (Homo sapiens [40])?
Its Ratio IC50 is 1000.
